Data: US7285701B2, “Cyanobacterial nucleic acid fragments encoding proteins useful for controlling plant traits via nuclear or plastome transformation” (BASF Plant Science GmbH, priority 2001, dated 2007)
pIC50: −log10 of the molar value. Where two headings read alike, the source gives them in different places.

Legend:
[1] = test system: 4′-fluoro-6-[(alpha,alpha,alpha,-trifluoro-m-toly)oxy]-picolinamide resistant mutants; test: Cross-resistance test of resistant mutants against other PDS inhibitors; type: cell-based, Synechocystis
[2] = test system: wild type Synechocystis PCC6803; test: Paper disc assay on BG-11 agar, wild type Synechocystis; type: cell-based
Text: (§1) Alternatively screens can be performed on agar plates with “lawns” of cyanobacteria and paper discs impregnated with test compounds. In this case, zones of inhibited growth around paper discs can be detected after two or three days.
(§2) To set up the assay, wild type cells of Synechocystis were mixed with equal volumes of 2× top agar and 2× BG-11 and overlaid on top of BG-11 agar plate. Cells normally appear in 3-5 days after plating. This method will yield an even and uniform lawn of cells. Upon solidifying, test compounds are then spotted on Whatman filter paper disc before being placed on agar plates. Four compounds can be tested on a single plate. Using this screening, in an example employing 160 different compounds, predominantly compounds of novel mode of action, have been tested on this microbe, and on average, 25% of the compounds show at least some activity.
Susceptibility of Synechocystis to 4′-fluoro-6-[(alpha,alpha,alpha,-trifluoro-m-toly)oxy]-picolinamide was tested using a paper disc assay in which 4′-fluoro-6-[(alpha,alpha,alpha,-trifluoro-m-toly)oxy]-picolinamide was spotted in a paper disc before being placed on a lawn of cells. In determining susceptibility, the size of the zone of inhibition is indicative of the potency of the compound.
(§3) A rapid plate based assay for screening and identifying active compounds is then performed. Wild type cells of Synechocystis are mixed with equal volumes of 2× top agar and 2× BG-11. The mixture is then overlaid on top of a BG-11 agar plate. Cells normally appear 3-5 days after plating. This method will yield an even and uniform lawn of cells.
(§4) After solidification of the agar, test compounds were spotted on Whatman filter paper disc, and then were placed on agar plates. Four different compounds were tested on a single plate. Using this screening method, 160 different compounds were tested, predominantly compounds of novel mode of action. On average, 25% of the compounds show at least some activity.
The resistant phenotype of selected mutant cell lines was further tested in solid medium as well as in suspension cultures. […]

wild type Synechocystis = test: Dose-response in liquid/suspension culture, wild type Synechocystis; type: cell-based, Synechocystis PCC6803
Method: (§5) To identity a target site gene activity, two types of Bluegreen algae, Synechocystis PCC 6803 (American Type Culture Collection, Rockville, Md.) and Anabaena PCC 7120 (American Type Culture Collection, Rockville, Md.) can be used for the screen. One is grown in microtiter dishes in BG-11 medium supplemented with various concentrations of the test compounds. Inhibition of growth can be monitored by visual inspection after two to three days of culture. Quantitative growth measurements can be taken photometrically starting one day after inoculation.
(§6) These experiments also established a dose-response curve. A lethal concentration for resistant mutant selection was 1-2 μM of 4′-fluoro-6-[(alpha,alpha,alpha,-trifluoro-m-toly)oxy]-picolinamide. Dose-response studies were also performed in 96-sell microtiter plates on wild type and putative 4′-fluoro-6-[(alpha,alpha,alpha,-trifluoro-m-toly)oxy]-picolinamide resistant mutants of Synechocystis. The growth of the culture was measured daily at an optical density of 690 nm.
(§7) For wild type cells (WT), the growth was inhibited at concentrations of 4′-fluoro-6-[(alpha,alpha,alpha,-trifluoro-m-toly)oxy]-picolinamide of <0.25 μM, with an I50 in the sub μM range. By contrast, the I50 values are between 1-2 μM for 5-1/12E, and in the range of 5-10 μM for 7-3/12F and 7-4/12F, respectively.
(§8) Wild type cells were inhibited at concentrations of <0.25 uM 4′-fluoro-6-[(alpha,alpha,alpha,-trifluoro-m-toly)oxy]-picolinamide, with an I50 in the sub μM range. In contrast I50 values are between 1-2 μM for 5-1/12E and 5-1/12F, and between 5-10 μM for 7-3/12F and […]. Thus, because the cell lines with the mutant pds genes are far more resistant than wild type cell lines, there is evidence that the selected cultures contain 4′-fluoro-6-[(alpha,alpha,alpha,-trifluoro-m-toly)oxy]-picolinamide resistance.

[3] = test system: Synechocystis EMS resistant mutant cell lines; test: Dose-response in suspension culture, resistant mutant cell lines; type: cell-based, Synechocystis PCC6803; settings: seven days, read-out: I50
Method: as §6, §7, §8

Synechocystis PCC 6803 = test: Susceptibility of Synechocystis PCC 6803 to known herbicides (Table 2); type: cell-based
Method: as §5, §1, §2
A rapid plate based assay for screening lead compounds was developed as follows. First, either one of two types of bluegreen algae, Synechocystis PCC6803 and Anabaen PC 7120 were grown in microtitre dishes containing BG-11 supplemented with various concentrations of 160 different test compounds. Alternatively, screens can be performed on agar plates with lawns of cyanobacteria and paper discs impregnated with test compounds.
as §3, §4
Cyanobacteria are a particularly useful source of genes for enhancing crop performance due to their similarity, and ancestral connection, to plant chloroplasts. In particular, cyanobacterial genes may be useful for transformation directly into the chloroplast genome due to similarities in genetic elements. Similarities in cyanobacterial genes and proteins to those from chloroplasts can carry over to a shared susceptibility to herbicides.

Anabaena PCC7120 = test: In vivo growth in BG-11 media with commercial herbicides; type: cell-based; settings: 100 nM, one week of culture in BG-11 media
Method: (§9) In vivo resistance of cyanobacteria to PURSUIT® imazethapyr and OUST® sulfometuron methyl. As a preliminary matter, Synechocystis PCC6803 and Anabaenia PCC7120 were tested for susceptibility to PURSUIT® imazethapyr and OUST® sulfometuron methyl. AHAS genes which are resistant to these herbicides are excellent candidates for transformation in plant plastomes and nuclear genomes. Such transformants can be used in a weed control strategy using a combination of transgenic herbicide resistant crops and herbicides.
(§10) In vivo testing of Synechocystis PCC6803 and Anabaena PCC7120 was done by culturing the organisms in varying concentrations of the commercial herbicides. […] For relative comparison purposes a concentration of 1 μM PURSUIT® imazethapyr in agar media is lethal to Arabidopsis plants.

Synechocystis PCC6803 = test: as above; type: cell-based; settings: 100 nM, one week of culture in BG-11 media
Method: as §9, §10

Synechocystis AHAS = test: In vitro AHAS assay; type: biochemical, Synechocystis PCC6803; settings: 100 nM
Method: (§11) AHAS is the target site of both PURSUIT® imazethapyr and OUST® sulfometuron methyl herbicides. To determine if resistance to the herbicides is due to a natural resistance to inhibition of the acetohydroxyacid synthase enzymes from the cyanobacteria, or if it is due to alternative mechanisms (e.g. lack of entry into the cell), the in vitro activity of the AHAS enzyme in the presence of the herbicides was tested.
(§12) AHAS assays were performed with slight modification as described by Singh et. al (Singh B K, Stidham M A, Shaner D L, 1988, Assay for acetohydroxyacid synthase from plants. Anal Biochem 171: 173-179).
(§13) Synechocystis PCC6803 and Anabaena PCC7120 were cultured in 1.5 L of BG-11 media. Cells were collected by centrifuge and stored frozen at −80° C. Frozen cells were thawed and placed in a 30 mL Bead Beater cell disruptor chamber (BioSpec Corp Bartlesville, Okla.). Seven mL of acid washed sand was added. The chamber was filled with 2× ASHA assay buffer, consisting of 100 mM HEPES pH7.0, 200 mM pyruvate, 20 mM MgCl2, 2 mM TPP (Thiamine pyrophosphate) and 100 μM FAD (flavin adenine dinucleotide).
(§14) The Bead Beater cell disruptor was packed in ice and turned on for 10 seconds, followed by cooling for 3 minutes. This cycle was repeated five times. The extract was transferred into a centrifuge tube, and spun in a Beckman SA20 (Beckman, Fullerton, Calif.) rotor for 15 minutes at 17,000 rpms. […]

Anabaena AHAS = test: In vitro AHAS assay; type: biochemical, Anabaena PCC7120; settings: 100 nM
Method: as §11, §12, §13, §14

[4] = test system: E. coli M1262 expressing the cyanobacterial ahas gene; test: Growth on minimal media of E. coli M1262 expressing the cyanobacterial ahas gene; type: cell-based
Text: To confirm that these plasmids carry functional AHAS sequences, plasmid DNA from each of the ten rescued colonies was transformed into the E. coli strain M1262. (leuB6, ilv1614, ilvH612, λ^−, relA1, spoT1, ilvB619, ilvG603, ilfG605(am), thi-1) (Genetics Stock Center, Yale University). This strain of E. coli is lacking in AHAS. […] The ahas gene can therefore be used for achieving herbicide tolerance in crops by transformation into the nuclear or plastidic genome.

[5] = wild type cells, suspension culture, seven days

O=C(Nc1cccc2c1C(=O)c1cccc(NC(=O)c3cc(C(=O)Nc4cccc5c4C(=O)c4cccc(NC(=O)c6ccccc6)c4C5=O)c(C(=O)Nc4cccc5c4C(=O)c4cccc(NC(=O)c6ccccc6)c4C5=O)cc3C(=O)Nc3cccc4c3C(=O)c3cccc(NC(=O)c5ccccc5)c3C4=O)c1C2=O)c1ccccc1 [1,2,4,5-benzenetetracarboxamide,N,N′,N″,N′″-tetrakis[5-(benzoylamino)-9,10-dihydro-9,10-dioxo-1-anthracenyl]]
cross-resistance of the resistant mutants [1]: exhibited cross-resistance

O=C(Nc1ccc(F)cc1)c1cccc(Oc2cccc(C(F)(F)F)c2)n1 [4′-fluoro-6-[(alpha,alpha,alpha,-trifluoro-m-toly)oxy]-picolinamide]
concentrations active against Synechocystis PCC6803 ([2]; BG-11 solid medium, paper disc assay): 1 to 2 µM | lethal concentration for resistant mutant selection ([2]; Synechocystis): 1 to 2 µM | growth of wild type Synechocystis ([2]; paper disc assay, 0.5 nmol): significantly inhibited | I50 of growth inhibition (wild type Synechocystis; liquid cultures): lower sub-micromolar range | I50 (wild type Synechocystis; [5]): sub μM range | concentration at which growth was inhibited (wild type Synechocystis; [5]): < 0.25 µM | pIC50 ([3]; mutant 5-1/12E): 5.70 to 6.00 | pIC50 ([3]; mutant 5-1/12F): 5.70 to 6.00 | pIC50 ([3]; mutant 5-4/12F): 5.00 to 5.30 | pIC50 ([3]; mutant 7-3/12F): 5.00 to 5.30 | pIC50 ([3]; mutant 7-4/12F): 5.00 to 5.30

CC(=O)/C(C(=O)c1ccc(Cl)cc1Cl)=C(/N)SCc1ccccc1 [(2E)-2-[amino(benzylsulfanyl)methylene]-1-(2,4-dichlorophenyl)-1,3-butanedione]
cross-resistance of the resistant mutants [1]: exhibited cross-resistance

N#Cc1cc(Br)c(O)c(Br)c1 [Bromoxynil]
Activity Rating (++ = highest) (Synechocystis PCC 6803): +

CN(C)C(=O)Nc1ccc(Cl)cc1 [CMU]
Activity Rating (++ = highest) (Synechocystis PCC 6803): +

CCOC(=O)Nc1cccc(OC(=O)Nc2ccccc2)c1 [Desmedipham]
Activity Rating (++ = highest) (Synechocystis PCC 6803): ++

CN(C)C(=O)Nc1ccccc1 [Fenuron]
Activity Rating (++ = highest) (Synechocystis PCC 6803): ++

CN(C)C(=O)Nc1ccc(Cl)cc1 [Monuron]
Activity Rating (++ = highest) (Synechocystis PCC 6803): ++

COC(=O)c1ccccc1S(=O)(=O)NC(=O)Nc1nc(C)cc(C)n1 [OUST® sulfometuron methyl, sulfometuron methyl]
inhibition of growth (Anabaena PCC7120): No inhibition of growth | inhibition of growth (Synechocystis PCC6803): No inhibition of growth | inhibition of AHAS enzyme (Synechocystis AHAS): No significant inhibition | inhibition of AHAS enzyme (Anabaena AHAS): No significant inhibition | growth on minimal media in the presence of the herbicide [4]: capable of growing

COC(=O)Nc1cccc(OC(=O)Nc2cccc(C)c2)c1 [Phenmedipham]
Activity Rating (++ = highest) (Synechocystis PCC 6803): ++

CCNc1nc(Cl)nc(NCC)n1 [Simazine]
Activity Rating (++ = highest) (Synechocystis PCC 6803): ++

Cc1cc(OCC=C(Cl)Cl)nc(Oc2ccnc(C(F)(F)F)c2)c1 [pyridine, 2-[(3,3-dichloro-2-propenyl)oxy]-4-methyl-6-[(2-(trifluoromethyl)-4-pyrodinyl]oxy]]
cross-resistance of the resistant mutants [1]: exhibited cross-resistance
